Source: article PMC6562543 (Marine Drugs, 2019)

What was measured:
[1] = in vivo; cited from earlier work
[2] = system: mice; set-up: species or system Kunming mice (ICR mice for intranasal treatment); conditions: mouse, in vivo
[3] = system: mice; conditions: mouse, in vivo; SEM
[4] = rat, in vivo, cited from earlier work
[5] = system: mice; set-up: species or system Kunming mice; conditions: mouse, in vivo, iv

CSCC[C@@H]1NC(=O)[C@H](CC(C)C)NC(=O)[C@H](CCCNC(=N)N)NC(=O)[C@H](CO)NC(=O)[C@@H]2CSSC[C@@H]3NC(=O)[C@H](CO)NC(=O)CNC(=O)[C@H]([C@@H](C)O)NC(=O)[C@H](CSSC[C@H](N)C(=O)N[C@@H](CCCCN)C(=O)NCC(=O)N[C@@H](CCCCN)C(=O)NCC(=O)N[C@@H](C)C(=O)N[C@@H](CCCCN)C(=O)N2)NC(=O)[C@H](CSSC[C@@H](C(N)=O)NC(=O)[C@H](CCCCN)NC(=O)CNC(=O)[C@H](CO)NC(=O)[C@H](CCCNC(=N)N)NC3=O)NC(=O)[C@H](CC(=O)O)NC(=O)[C@H](Cc2ccc(O)cc2)NC1=O [MVIIA, ω-Conotoxin MVIIA]
antinociceptive potency relative to intrathecal morphine [1]: 100 times | potency relative to morphine [1]: 100 times | time after which the effect disappeared [2]: ≤ 4 h | time of maximal antinociceptive effect [2]: 1 h | antinociceptive effect ([2]; iv): no effect | stay time on rotarod [3]: 74.5 ± 20.28 s | AUC0-6 in CSF ([4]; iv): 4.98 ± 0.97 µg·min/mL | Cmax in CSF ([4]; iv): 37.78 ± 6.8 ng/mL | Tmax in CSF ([4]; iv): ~ 2 h | bioavailability in CSF following intranasal versus intravenous administration [4]: two fold greater | effect on writhing numbers [5]: failed to attenuate writhing numbers
